Source: US20230278972A1, “SUBSTITUTED HALOALKYL SULFONANILIDE HERBICIDES” (FMC Corporation, priority 2020, published 2023)

Experiments:
Format in all cases: in vivo
[1] = test system: ducksalad (Heteranthera limosa); assay: Test B1 flooded paddy test, ducksalad; conditions: 250 g ai/ha, Flood, applied to paddy water, 2-leaf stage, visually evaluated after 10 to 14 days
Text: (§1) A dash (-) response means no test result.

corn (Zea mays) [2] = assay: Test A1 postemergence, corn; conditions: Postemergence
Procedure, shortened: (§2)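 Both timings started from seed in a loam-sand blend. Preemergence pots got a directed soil application immediately; postemergence pots were sprayed when seedlings had one or two leaves and stood 2–10 cm. Each compound was prepared in a non-phytotoxic solvent plus surfactant.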

[3] = test system: ragweed (common ragweed, Ambrosia artemisiifolia); assay: Test A1 preemergence, ragweed
Procedure, shortened: as §2

[4] = test system: Oat, Wild (wild oat, Avena fatua); assay: Test A1 postemergence, Oat, Wild; conditions: Postemergence
Procedure, shortened: (§3)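 Postemergence species (ragweed, Palmer pigweed, wild oat) were sprayed at one- to two-leaf stage, 2 to 10 cm tall. Corn was treated preemergence by directed soil spray. Both used a loam soil/sand blend and compounds in a non-phytotoxic solvent mixture with surfactant.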

[5] = test system: Pigweed, Palmer (palmer amaranth, palmer pigweed, Amaranthus palmeri); assay: Test A1 preemergence, Pigweed, Palmer
Procedure, shortened: as §2

[6] = test system: horseweed (Erigeron canadensis); assay: Test A1 postemergence, horseweed; conditions: Postemergence
Procedure, shortened: (§4)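 Herbicidal response was scored on plants treated either preemergence, by directed spray onto soil of a loam–sand blend after sowing, or postemergence on potted plants at the one- to two-leaf stage, 2–10 cm high. Test chemicals were carried in a non-phytotoxic solvent mix with surfactant.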

[7] = test system: Pigweed, Palmer (palmer amaranth, palmer pigweed, Amaranthus palmeri); assay: Test A1 postemergence, Pigweed, Palmer; conditions: Postemergence
Procedure, shortened: as §3

[8] = test system: galium (catchweed bedstraw, Galium aparine); assay: Test A1 postemergence, galium; conditions: Postemergence
Procedure, shortened: as §4

soybean (Glycine max) [9] = assay: Test A1 postemergence, soybean; conditions: Postemergence
Procedure, shortened: as §4

[10] = test system: Oat, Wild (wild oat, Avena fatua); assay: Test A1 preemergence, Oat, Wild
Procedure, shortened: as §2

kochia (Bassia scoparia) [11] = assay: Test A1 preemergence, kochia
Procedure, shortened: as §2

[12] = test system: blackgrass (Alopecurus myosuroides); assay: Test A1 postemergence, blackgrass; conditions: Postemergence, 0 to 100 scale (0 no effect, 100 complete control)
Procedure, shortened: as §4

rice (Oryza sativa) = assay: Test B1 flooded paddy test, rice; conditions: 250 g ai/ha, Flood, applied to paddy water, 2-leaf stage, visually evaluated after 10 to 14 days
Text: as §1

[13] = test system: wheat (Triticum aestivum); assay: Test A1 postemergence, wheat; conditions: Postemergence
Procedure, shortened: as §4

[14] = test system: blackgrass (Alopecurus myosuroides); assay: Test A1 preemergence, blackgrass
Procedure, shortened: as §2

corn (Zea mays) [15] = assay: Test A1 preemergence, corn
Procedure, shortened: as §3

[16] = test system: goosegrass (Eleusine indica); assay: Test A1 postemergence, goosegrass; conditions: Postemergence
Procedure, shortened: as §4

soybean (Glycine max) [17] = assay: Test A1 preemergence, soybean
Procedure, shortened: as §2

[18] = test system: Ryegrass, Italian (Italian ryegrass, Lolium multiflorum); assay: Test A1 postemergence, Ryegrass, Italian; conditions: Postemergence
Procedure, shortened: as §4

[19] = test system: Foxtail, Giant (giant foxtail, Setaria faberi); assay: Test A1 postemergence, Foxtail, Giant; conditions: Postemergence
Procedure, shortened: as §4

[20] = test system: Ryegrass, Italian (Italian ryegrass, Lolium multiflorum); assay: Test A1 preemergence, Ryegrass, Italian
Procedure, shortened: as §2

[21] = test system: Foxtail, Giant (giant foxtail, Setaria faberi); assay: Test A1 preemergence, Foxtail, Giant
Procedure, shortened: as §2

kochia (Bassia scoparia) [22] = assay: Test A1 postemergence, kochia; conditions: Postemergence
Procedure, shortened: as §4

[23] = test system: ragweed (common ragweed, Ambrosia artemisiifolia); assay: Test A1 postemergence, ragweed; conditions: Postemergence
Procedure, shortened: as §3

[24] = test system: goosegrass (Eleusine indica); assay: Test A1 preemergence, goosegrass
Procedure, shortened: as §2

[25] = test system: barnyardgrass (Echinochloa crus-galli); assay: Test B1 flooded paddy test, barnyardgrass; conditions: 250 g ai/ha, Flood, applied to paddy water, 2-leaf stage, visually evaluated after 10 to 14 days
Text: as §1

[26] = test system: wheat (Triticum aestivum); assay: Test A1 preemergence, wheat
Procedure, shortened: as §2

[27] = 31 g ai/ha, 0 to 100 scale (0 no effect, 100 complete control), 10 days
[28] = 31 g ai/ha, 0 to 100 scale (0 no effect, 100 complete control)
[29] = 125 g ai/ha, 0 to 100 scale, 0 no effect, 100 complete control

COCC1CC(c2cc(NS(=O)(=O)C(F)(F)F)c(C)cc2C)=NO1 (stereo not drawn) [Compound 319]
Plant response rating, Ducksalad (0 to 100 scale, 0 is no effect, 100 is complete control) [1]: 85
Plant response rating, Corn (corn (Zea mays) [2]; [27]): 10
Plant response rating, Corn (corn (Zea mays) [2]; 125 g ai/ha, 0 to 100 scale): 80
Plant response rating, Ragweed [3, 28]: 0
Plant response rating, Ragweed [3, 29]: 70
Plant response rating, Oat, Wild [4, 27]: 0
Plant response rating, Oat, Wild ([4]; 125 g ai/ha, 0 to 100 scale): 10
Plant response rating, Pigweed, Palmer [5, 28]: 70
Plant response rating, Pigweed, Palmer [5, 29]: 80
Plant response rating, Horseweed [6, 27]: 10
Plant response rating, Horseweed ([6]; 125 g ai/ha, 0 to 100 scale): 40
Plant response rating, Pigweed, Palmer [7, 27]: 0
Plant response rating, Pigweed, Palmer ([7]; 125 g ai/ha, 0 to 100 scale): 50
Plant response rating, Galium [8, 27]: 40
Plant response rating, Galium ([8]; 125 g ai/ha, 0 to 100 scale): 70
Plant response rating, Soybean (soybean (Glycine max) [9]; [27]): 20
Plant response rating, Soybean (soybean (Glycine max) [9]; 125 g ai/ha, 0 to 100 scale): 50
Plant response rating, Oat, Wild [10, 28]: 60
Plant response rating, Oat, Wild [10, 29]: 70
Plant response rating, Kochia (kochia (Bassia scoparia) [11]; [28]): 0
Plant response rating, Kochia (kochia (Bassia scoparia) [11]; [29]): 40
Plant response rating, Blackgrass ([12]; 31 g ai/ha, 10 days): 0
Plant response rating, Blackgrass ([12]; 125 g ai/ha): 10
Plant response rating, Rice (0 to 100 scale, 0 is no effect, 100 is complete control) (rice (Oryza sativa)): 30
Plant response rating, Wheat [13, 27]: 70
Plant response rating, Wheat ([13]; 125 g ai/ha, 0 to 100 scale): 70
Plant response rating, Blackgrass [14, 28]: 30
Plant response rating, Blackgrass [14, 29]: 50
Plant response rating, Corn (corn (Zea mays) [15]; [28]): 40
Plant response rating, Corn (corn (Zea mays) [15]; [29]): 90
Plant response rating, Goosegrass [16, 27]: 70
Plant response rating, Goosegrass ([16]; 125 g ai/ha, 0 to 100 scale): 90
Plant response rating, Soybean (soybean (Glycine max) [17]; [28]): 20
Plant response rating, Soybean (soybean (Glycine max) [17]; [29]): 30
Plant response rating, Ryegrass, Italian [18, 27]: 30
Plant response rating, Ryegrass, Italian ([18]; 125 g ai/ha, 0 to 100 scale): 50
Plant response rating, Foxtail, Giant [19, 27]: 40
Plant response rating, Foxtail, Giant ([19]; 125 g ai/ha, 0 to 100 scale): 90
Plant response rating, Ryegrass, Italian [20, 28]: 50
Plant response rating, Ryegrass, Italian [20, 29]: 90
Plant response rating, Foxtail, Giant [21, 28]: 90
Plant response rating, Foxtail, Giant [21, 29]: 100
Plant response rating, Kochia (kochia (Bassia scoparia) [22]; [27]): 40
Plant response rating, Kochia (kochia (Bassia scoparia) [22]; 125 g ai/ha, 0 to 100 scale): 80
Plant response rating, Ragweed [23, 27]: 30
Plant response rating, Ragweed ([23]; 125 g ai/ha, 0 to 100 scale): 60
Plant response rating, Goosegrass [24, 28]: 90
Plant response rating, Goosegrass [24, 29]: 90
Plant response rating, Barnyardgrass (0 to 100 scale, 0 is no effect, 100 is complete control) [25]: 90
Plant response rating, Wheat [26, 28]: 80
Plant response rating, Wheat [26, 29]: 100

Cc1c(NS(=O)(=O)C(F)(F)F)cc(C2=NOC3CCCC23)c(C)c1C (stereo not drawn) [Compound 335]
Plant response rating, Ducksalad (0 to 100 scale, 0 is no effect, 100 is complete control) [1]: 70
Plant response rating, Corn (corn (Zea mays) [2]; [27]): 0
Plant response rating, Corn (corn (Zea mays) [2]; 125 g ai/ha, 0 to 100 scale): 0
Plant response rating, Ragweed [3, 28]: 20
Plant response rating, Ragweed [3, 29]: 90
Plant response rating, Oat, Wild [4, 27]: 0
Plant response rating, Oat, Wild ([4]; 125 g ai/ha, 0 to 100 scale): 0
Plant response rating, Pigweed, Palmer [5, 28]: 100
Plant response rating, Pigweed, Palmer [5, 29]: 100
Plant response rating, Horseweed [6, 27]: 40
Plant response rating, Horseweed ([6]; 125 g ai/ha, 0 to 100 scale): 70
Plant response rating, Pigweed, Palmer [7, 27]: 20
Plant response rating, Pigweed, Palmer ([7]; 125 g ai/ha, 0 to 100 scale): 30
Plant response rating, Galium [8, 27]: 50
Plant response rating, Galium ([8]; 125 g ai/ha, 0 to 100 scale): 80
Plant response rating, Soybean (soybean (Glycine max) [9]; [27]): 0
Plant response rating, Soybean (soybean (Glycine max) [9]; 125 g ai/ha, 0 to 100 scale): 30
Plant response rating, Oat, Wild [10, 28]: 0
Plant response rating, Oat, Wild [10, 29]: 30
Plant response rating, Kochia (kochia (Bassia scoparia) [11]; [28]): 20
Plant response rating, Kochia (kochia (Bassia scoparia) [11]; [29]): 60
Plant response rating, Blackgrass ([12]; 31 g ai/ha, 10 days): 0
Plant response rating, Blackgrass ([12]; 125 g ai/ha): 10
Plant response rating, Rice (0 to 100 scale, 0 is no effect, 100 is complete control) (rice (Oryza sativa)): 45
Plant response rating, Wheat [13, 27]: 0
Plant response rating, Wheat ([13]; 125 g ai/ha, 0 to 100 scale): 0
Plant response rating, Blackgrass [14, 28]: 0
Plant response rating, Blackgrass [14, 29]: 0
Plant response rating, Corn (corn (Zea mays) [15]; [28]): 0
Plant response rating, Corn (corn (Zea mays) [15]; [29]): 60
Plant response rating, Goosegrass [16, 27]: 0
Plant response rating, Goosegrass ([16]; 125 g ai/ha, 0 to 100 scale): 10
Plant response rating, Soybean (soybean (Glycine max) [17]; [28]): 30
Plant response rating, Soybean (soybean (Glycine max) [17]; [29]): 40
Plant response rating, Ryegrass, Italian [18, 27]: 0
Plant response rating, Ryegrass, Italian ([18]; 125 g ai/ha, 0 to 100 scale): 30
Plant response rating, Foxtail, Giant [19, 27]: 0
Plant response rating, Foxtail, Giant ([19]; 125 g ai/ha, 0 to 100 scale): 0
Plant response rating, Ryegrass, Italian [20, 28]: 0
Plant response rating, Ryegrass, Italian [20, 29]: 60
Plant response rating, Foxtail, Giant [21, 28]: 60
Plant response rating, Foxtail, Giant [21, 29]: 100
Plant response rating, Kochia (kochia (Bassia scoparia) [22]; [27]): 10
Plant response rating, Kochia (kochia (Bassia scoparia) [22]; 125 g ai/ha, 0 to 100 scale): 60
Plant response rating, Ragweed [23, 27]: 50
Plant response rating, Ragweed ([23]; 125 g ai/ha, 0 to 100 scale): 80
Plant response rating, Goosegrass [24, 28]: 30
Plant response rating, Goosegrass [24, 29]: 70
Plant response rating, Barnyardgrass (0 to 100 scale, 0 is no effect, 100 is complete control) [25]: 95
Plant response rating, Wheat [26, 28]: 0
Plant response rating, Wheat [26, 29]: 0
